Measured values reported in a melting point compilation (Tetko et al.; mined from patent text by program, amines drawn as free bases though some values may be those of a salt).

Row | SMILES | melting point [°C]
1 | CCC(C)NC1=NS(=O)(=O)c2ccc(Cl)cc2N1 (stereo not drawn) | 242 to 245
2 | O=c1c2ccc(Cl)cc2[nH]c2c(O)nn(-c3ccc(OC(F)(F)F)cc3)c(=O)c12 | 320 to 322
3 | O=[N+]([O-])C=Cc1cccc2[nH]ccc12 | 152 to 154
4 | COC(=O)c1ccc(COc2ccc3cc(-c4ccc(-c5ccccc5)n4-c4ccccc4)ccc3c2)cc1 | 218 to 219
5 | CCCCN(CCCC)c1ccc(C=CC=CC=CC2=C(C#N)C(=C(C#N)C#N)OC2(c2ccccc2)C(F)(F)F)c(OC)c1 (stereo not drawn) | 208 to 210
6 | COc1ccc2c(-c3ccc(OC)c(C)c3)noc2c1 | 93 to 95
7 | O=C(O)CCNC(=O)CCNC(=O)N1CCC2(CCNCC2)CC1 | 105 to 110
8 | Nc1cccc(C=Cc2ccc(O)cc2)n1 | 224 to 225
9 | O=Cc1ccc2cc(O)ccc2c1 | 154 to 156
10 | CCCCCc1cc(O)c2c(c1)OC(C)(C)[C@H]1CC=C(C(=O)NCC(O)CNC(=O)c3ccc4c(c3)C(=O)OC43c4ccc(O)cc4Oc4cc(O)ccc43)C[C@H]21 (stereo partly drawn) | > 330
11 | OC1(C#Cc2ccc(-c3ccc(F)cc3)cc2)CN2CCC1CC2 (stereo not drawn) | 232 to 233
12 | CCCCCCCC1=CC(=O)N(Cc2ccccc2)C1=CBr | 52 to 55
13 | COC(=O)c1ccc(C(=O)N(C)C)cc1 | 107
14 | COc1cc(C=Cc2nc3c(s2)NCCCC3)ccc1O | 175 to 178
15 | COC1CC(NC(=O)C(F)(F)F)C(C)(O)C(C)O1 (stereo not drawn) | 133 to 134
16 | COc1cccc([Si](C)(C)COc2cc(C(C)(C)C)c(O)c(C(C)(C)C)c2)c1OC | 94.5 to 96
17 | CCOC(=O)C1=C(C)NC(O)(c2ccc([N+](=O)[O-])cc2)C(C(=O)OCC)C1c1cccc([N+](=O)[O-])c1 (stereo not drawn) | 196 to 197
18 | CCN(CC)c1ccc2c(c1)[C@@H]1[C@H](C2)c2ccc(N(CC)CC)cc2N1C(C)=O (relative stereo) | 137 to 138
19 | CC(C)(C)OC(=O)[C@@H](N)Cc1ccc(O)c(C(C)(C)C)c1 | 43 to 52
20 | CC(C)(Oc1ccc(CCC(=O)c2ccc(-c3ccc(C(F)(F)F)cc3)o2)c(Cl)c1Cl)C(=O)O | 85
21 | Cc1cc(C)c(C2C(=O)CCCC2=O)c(C)c1 | 196 to 198
22 | O=C(O)C1Oc2cc(Cl)c(S(=O)(=O)c3cc(Cl)cc(Cl)c3)cc2O1 (stereo not drawn) | 166 to 169
23 | CCOC(=O)c1cnc2ccc(OC)nc2c1Cl | 98 to 100

Next, values leading:

Row | melting point [°C] | SMILES
24 | 71 to 73 | Cc1onc(-c2ccc(Cl)o2)c1-c1ccccc1
25 | 289 to 292 | C[C@@H]1CCCN1CCCOc1ccc2c(c1)CCc1cc(=O)[nH]nc1-2
26 | 152 to 155 | COc1ccc(N2CCN(c3c(C)c(C)c4c(c3C)CC(C)(C)O4)CC2)cc1
27 | 188 to 193 | CCOC(=O)c1cnn(-c2ccc(-n3cc(OC)c(=O)c(-c4ccnn4-c4ccccc4)n3)c(F)c2)c1O
28 | 132 to 135 | O=C(O)CN1CCC(=C2c3ccccc3COc3ccccc32)CC1
29 | > 300 | CN(C(=O)OC(C)(C)C)[C@H]1CCN(C(=O)c2ccc(-c3[nH]nc4c3C(=O)c3c(NC(=O)NN5CCOCC5)cccc3-4)s2)C1
30 | 95 to 96 | Cc1sc2ccccc2c1C=O
31 | 162 to 164 | CC1CCCC(C)N1Cc1ccc2cc(NC(=O)C3(Cl)C=CC(c4ccccc4Cl)=CC3)ccc2n1 (stereo not drawn)
32 | 114 | COC(=O)c1nn(-c2ccc(Cl)cc2Cl)c(-c2ccc(Cl)cc2)c1CF
33 | 206 to 210 | NC(=O)c1sc2nccc(N3CCCN(c4ccccc4Cl)CC3)c2c1N
34 | 156 to 158 | c1ccc(N2CCNc3nc4ccccc4n3CC2)cc1
35 | 130 to 132 | Nc1cccc(-c2ccc(CCN3CCC4(CCCC4)CC3)cc2)n1
36 | 264 to 265 | O=C(O)c1ccc(-c2nc(-c3ccccc3C(F)(F)F)co2)cc1
37 | 172 | Cc1ccc(-c2cc(OCC(=O)N3CCOCC3)c3c(C(F)(F)F)cccc3n2)cc1
38 | 31 to 34 | COC(=O)c1ccccc1Oc1ccc(C)cc1
